One test deals with T1, human MC4R (Homo sapiens, UniProt P32245).
T1 construct: expressed in transfected cells; host or cells: HEK293/MC4R/CRE-GFP
The test is described as follows: cAMP accumulation assay (HTRF), antagonist activity at MC4R. The test is classed as cell-based. The note with it: for Emax: HEK293, HEK293/MC4R/CRE-GFP, 0.1 nM to 1,000 nM, read-out: Max Activation %; for Hill Coefficient / Top (%): dose-response fit, MC4R; for IC50: HEK293/MC4R/CRE-GFP, estimated from dose-response curve. The protocol: (§1) The antagonist activity of exemplary non-naturally occurring melanocortin analogs (SEQ ID NOs: 3, 4, 6, 9-11, 14, 15, and 291-309) at the melanocortin 3 receptor (MC3R) and melanocortin 4 (MC4R) receptor was measured via cAMP accumulation assay, according to the following procedure.
(§2) Recombinant cell lines shown in Table 1 were stimulated with melanocortin receptor antagonists and evaluated for cyclic adenosine monophosphate (cAMP) levels as a measurement of receptor activation. cAMP levels were quantified using Homogeneous Time-Resolved Fluorescence (HTRF). The stimulation and CAMP measurement were performed sequentially. First, the compound stimulated the G-protein coupled receptor (GPCR) which then induced downstream signaling, which was measured soon after. Cell lines and stimulated receptors used are detailed in Table 1.
(§3) Twenty-seven exemplary synthetic peptides were tested for antagonist activity at the human MC3R and MC4R at concentrations ranging from 0.1 nM to 1,000 nM. After stimulation, the level of cyclic adenosine monophosphate (CAMP) in each well was quantified via Homogenous Time-Resolved Fluorescence (HTRF) as a measurement of receptor activity. Dose-response curves and estimated IC50 values were then obtained for each antagonist peptide against the MC3R and MC4R. HS024 (TFA) and was used as a positive control for the antagonist activity of MC3R (FIG. 1A) and MC4R (FIG. 1B).

The next test concerns the target T2, human MC3R (Homo sapiens, UniProt P41968).
T2 construct: expressed in transfected cells; host or cells: HEK293/CRE-luc/MC3R
The test is described as follows: cAMP accumulation assay (HTRF), antagonist activity at MC3R. The conditions noted are these: for Emax / IC50: HEK293/CRE-luc/MC3R; for Emax: 0.1 nM to 1,000 nM, read-out: Max Activation %; for Hill Coefficient / Top (%): dose-response fit, MC3R; for IC50: estimated from dose-response curve. The test is classed as cell-based. The protocol:
as §1, §2, §3

Several values for one entry are separate records, joined by “and”; a condition that tells them apart may be missing. Identical values can stand only once. Counter-ions that a name gives are not always drawn. Positions of bridges follow the written chain, without caps; N, C: chain ends. Non-standard residues stand in square brackets, D forms with d. Residues, ends and D or L forms follow the SMILES beside them. d2Nal = N[C@H](Cc1ccc2ccccc2c1)C(=O)O; Hyp = O=C(O)[C@@H]1C[C@@H](O)CN1; Nle = CCCC[C@H](N)C(=O)O A value given as a limit tells only on which side of the number the result lay.

T1 sequence (P32245 whole entry): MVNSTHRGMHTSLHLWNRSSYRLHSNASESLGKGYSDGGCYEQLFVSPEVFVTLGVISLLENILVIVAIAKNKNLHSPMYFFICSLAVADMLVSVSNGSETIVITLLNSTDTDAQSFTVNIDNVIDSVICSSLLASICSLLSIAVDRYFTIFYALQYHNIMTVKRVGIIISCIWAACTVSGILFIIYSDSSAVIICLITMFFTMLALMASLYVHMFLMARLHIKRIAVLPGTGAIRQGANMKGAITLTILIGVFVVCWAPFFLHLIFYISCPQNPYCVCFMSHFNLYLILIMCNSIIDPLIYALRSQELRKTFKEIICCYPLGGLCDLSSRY
T2 sequence (P41968 whole entry): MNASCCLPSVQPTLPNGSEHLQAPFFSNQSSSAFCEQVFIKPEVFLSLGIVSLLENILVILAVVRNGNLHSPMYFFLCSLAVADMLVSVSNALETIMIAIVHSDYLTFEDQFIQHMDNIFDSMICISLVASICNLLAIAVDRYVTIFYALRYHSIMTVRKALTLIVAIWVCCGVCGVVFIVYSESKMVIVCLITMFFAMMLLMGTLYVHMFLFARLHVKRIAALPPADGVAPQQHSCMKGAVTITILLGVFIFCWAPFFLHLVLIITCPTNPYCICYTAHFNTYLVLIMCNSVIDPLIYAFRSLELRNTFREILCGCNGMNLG

In the case of `CCCC[C@@H]1NC(=O)[C@@H](NC(C)=O)CSSC[C@@H](C(N)=O)NC(=O)CNC(=O)[C@H](Cc2c[nH]c3ccccc23)NC(=O)[C@H](CCCNC(=N)N)NC(=O)[C@@H](Cc2ccc3ccccc3c2)NC(=O)[C@H](Cc2c[nH]cn2)NC(=O)[C@H](CCCNC(=N)N)NC1=O` [HS024(TFA), reference compound] (Ac-C[Nle]RH[d2Nal]RWGC-NH2; disulfide 1-9 (inferred); N-terminus and C-terminus assumed), at human MC4R, the Emax stood at 104%, the “Hill Coefficient” value was 0.61 and the “Top (%)” value was 113.93%. Further, on human MC3R, the Emax is 102%, the “Hill Coefficient” value is given as 0.93 and the “Top (%)” value is 117.07%.

As to `CCCC[C@H](NC(C)=O)C(=O)N[C@@H](CC(=O)O)C(=O)N1CCC[C@H]1C(=O)N[C@H](Cc1ccc2ccccc2c1)C(=O)N[C@@H](CCCNC(=N)N)C(=O)N[C@@H](Cc1c[nH]c2ccccc12)C(=O)N[C@@H](CCCCN)C(=O)N[C@@H](C(=O)N1CCC[C@@H]1C(N)=O)C(C)C` [Peptide A1, Ac-Nle-Asp-Pro-Dnal(2′)-Arg-Trp-Lys-Dval-Dpro-NH2] (Ac-[Nle]DP[d2Nal]RWK[dV][dP]-NH2), on human MC4R, the IC50 – broadly, the concentration that gives 50% inhibition – was less than 10 µM; the “Hill Coefficient” value is 0.43 and 0.32; the “Top (%)” value is 1195.94% and 652.03%. Also, at human MC3R, the Emax worked out at 84.4%, the IC50 is less than 10 µM, the “Hill Coefficient” value is on record as 0.55 and the “Top (%)” value was 1002.64%.

For the molecule `CCCC[C@H](NC(C)=O)C(=O)N[C@H]1CC(=O)NCCCC[C@@H](C(=O)N[C@@H](C(=O)N2CCC[C@@H]2C(N)=O)C(C)C)NC(=O)[C@H](Cc2c[nH]c3ccccc23)NC(=O)[C@H](CCCNC(=N)N)NC(=O)[C@@H](Cc2ccc3ccccc3c2)NC(=O)[C@H](Cc2c[nH]cn2)NC(=O)[C@@H]2CCCN2C1=O` [Peptide D1, Ac-Nle-c(Asp-Pro-His-Dnal(2′)-Arg-Trp-Lys)-Dval-Dpro-NH2] (Ac-[Nle]DPH[d2Nal]RWK[dV][dP]-NH2; lactam 2-8), at human MC4R, the Emax was found to be 49.4%, the IC50 was more than 10 µM, the “Hill Coefficient” value amounted to 0.55 and the “Top (%)” value is reported as 2739.03%. For the same molecule, at human MC3R, the Emax is 74.5%, the IC50 is less than 10 µM, the “Hill Coefficient” value stood at 0.73 and the “Top (%)” value is given as 4952.72%.

As to `CCCC[C@H](NC(C)=O)C(=O)N[C@H]1CC(=O)NCCCC[C@@H](C(=O)N[C@@H](C(=O)N2CCC[C@@H]2C(N)=O)C(C)C)NC(=O)[C@H](Cc2c[nH]c3ccccc23)NC(=O)[C@H](CCCNC(=N)N)NC(=O)[C@@H](Cc2ccc3ccccc3c2)NC(=O)[C@@H]2C[C@@H](O)CN2C1=O` [Peptide D3, Ac-Nle-c(Asp-Hyp-Dnal(2′)-Arg-Trp-Lys)-Dval-Dpro-NH2] (Ac-[Nle]D[Hyp][d2Nal]RWK[dV][dP]-NH2; lactam 2-7), at human MC4R, the Emax is 117%; the IC50 was < 10 µM and 0.0406 µM; the “Hill Coefficient” value was determined as 0.80; the “Top (%)” value is on record as 119.03%. Also, at human MC3R, the Emax turned out to be 111%; the IC50 is < 10 µM and 0.087 µM; the “Hill Coefficient” value came to 0.98; the “Top (%)” value was 113.20%.

As to `CCCC[C@H](NC(C)=O)C(=O)N[C@H]1CC(=O)NCCCC[C@@H](C(=O)N[C@@H](C(=O)N2CCC[C@@H]2C(N)=O)C(C)C)NC(=O)[C@@H]2CCCN2C(=O)[C@H](Cc2c[nH]c3ccccc23)NC(=O)[C@H](CCCNC(=N)N)NC(=O)[C@@H](Cc2ccc3ccccc3c2)NC(=O)[C@@H]2C[C@@H](O)CN2C1=O` [Peptide D4, Ac-Nle-c(Asp-Hyp-Dnal(2′)-Arg-Trp-Pro-Lys)-Dval-Dpro-NH2] (Ac-[Nle]D[Hyp][d2Nal]RWPK[dV][dP]-NH2; lactam 2-8), at human MC4R, the Emax was found to be 21%, the “Hill Coefficient” value came to 0.92 and the “Top (%)” value is 9354.39%. Besides, at human MC3R, the Emax was found to be 50.1%, the IC50 was more than 10 µM, the “Hill Coefficient” value is given as 0.65 and the “Top (%)” value is reported as 2741.58%.

For the molecule `CCCC[C@H](NC(C)=O)C(=O)N[C@H]1CC(=O)NCCCC[C@@H](C(=O)N2CCC[C@@H]2C(=O)N[C@@H](C(N)=O)C(C)C)NC(=O)[C@H](Cc2c[nH]c3ccccc23)NC(=O)[C@H](CCCNC(=N)N)NC(=O)[C@@H](Cc2ccc3ccccc3c2)NC(=O)[C@H](Cc2c[nH]cn2)NC(=O)[C@@H]2CCCN2C1=O` [Peptide D5, Ac-Nle-c(Asp-Pro-His-Dnal(2′)-Arg-Trp-Lys)-Dpro-Dval-NH2] (Ac-[Nle]DPH[d2Nal]RWK[dP][dV]-NH2; lactam 2-8), at human MC4R, the Emax turned out to be 41.5%, the “Hill Coefficient” value amounted to 0.67 and the “Top (%)” value turned out to be 2724.46%. In addition, at human MC3R, the Emax was found to be 24.6%, the IC50 is more than 10 µM, the “Hill Coefficient” value is on record as 1.04 and the “Top (%)” value was 472.61%.

With “Ac-Leu-c(Asp-Pro-Phe-Phe-Arg-Trp-Lys)-Val-Pro-NH2 (Ac-LDPFFRWKVP-NH2; lactam 2-8; SMILES CC(=O)N[C@@H](CC(C)C)C(=O)N[C@H]1CC(=O)NCCCC[C@@H](C(=O)N[C@H](C(=O)N2CCC[C@H]2C(N)=O)C(C)C)NC(=O)[C@H](Cc2c[nH]c3ccccc23)NC(=O)[C@H](CCCNC(=N)N)NC(=O)[C@H](Cc2ccccc2)NC(=O)[C@H](Cc2ccccc2)NC(=O)[C@@H]2CCCN2C1=O) [Peptide B2]”, in the test with human MC4R, the “Hill Coefficient” value is 0.69 and the “Top (%)” value worked out at 729.66%. Further, in the test with human MC3R, the “Hill Coefficient” value was determined as 0.34 and the “Top (%)” value is on record as 20.30%.

As to “Ac-Leu-c(Asp-Pro-Trp-Arg-Trp-Lys)-Val-Pro-NH2 (Ac-LDPWRWKVP-NH2; lactam 2-7; SMILES CC(=O)N[C@@H](CC(C)C)C(=O)N[C@H]1CC(=O)NCCCC[C@@H](C(=O)N[C@H](C(=O)N2CCC[C@H]2C(N)=O)C(C)C)NC(=O)[C@H](Cc2c[nH]c3ccccc23)NC(=O)[C@H](CCCNC(=N)N)NC(=O)[C@H](Cc2c[nH]c3ccccc23)NC(=O)[C@@H]2CCCN2C1=O) [Peptide C2]”, in the test with human MC4R, the “Hill Coefficient” value turned out to be 48.53 and the “Top (%)” value is listed as −2.85%. In the test with human MC3R, the “Hill Coefficient” value is reported as −0.48 and the “Top (%)” value is given as 0.42%.

Take “Ac-Nle-Pro-Dnal(2′)-Arg-Trp-Dval-Dpro-NH2 (Ac-[Nle]P[d2Nal]RW[dV][dP]-NH2; SMILES CCCC[C@H](NC(C)=O)C(=O)N1CCC[C@H]1C(=O)N[C@H](Cc1ccc2ccccc2c1)C(=O)N[C@@H](CCCNC(=N)N)C(=O)N[C@@H](Cc1c[nH]c2ccccc12)C(=O)N[C@@H](C(=O)N1CCC[C@@H]1C(N)=O)C(C)C) [Peptide A2]”: in the test with human MC3R, the “Hill Coefficient” value was 0.82 and the “Top (%)” value was 9.73%.

“Ac-Nle-c(Asp-His-Dnal(2′)-Arg-Trp-Pro-Lys)-Dval-Dpro-NH2 (Ac-[Nle]DH[d2Nal]RWPK[dV][dP]-NH2; lactam 2-8; SMILES CCCC[C@H](NC(C)=O)C(=O)N[C@H]1CC(=O)NCCCC[C@@H](C(=O)N[C@@H](C(=O)N2CCC[C@@H]2C(N)=O)C(C)C)NC(=O)[C@@H]2CCCN2C(=O)[C@H](Cc2c[nH]c3ccccc23)NC(=O)[C@H](CCCNC(=N)N)NC(=O)[C@@H](Cc2ccc3ccccc3c2)NC(=O)[C@H](Cc2c[nH]cn2)NC1=O) [Peptide D2]”: the “Hill Coefficient” value with human MC4R stood at 1.55; with human MC3R, 0.84. The “Top (%)” value in the test with human MC4R amounted to 18.76%; with human MC3R, 177.39%.
